Measured values reported in patent publication US20210300981A1, “COMPOSITIONS AND METHODS FOR COMBATING MULTIDRUG-RESISTANT BACTERIA” (University of Virginia Patent Foundation, priority 2018, published 2021).
Where a SMILES comes first, the peptide text is derived from it. Where no end group is shown, it is not given here. [ ]: non-standard residue; d: D form. ξ: configuration not given here. ξαMeGly(pent-4-enyl) = C=CCCCC(C)(N)C(=O)O

Tests used:
MDR A. baumannii = conditions: 2 h, 1.4 μM
MDR S. Typhi [1] = conditions: 2 h, 2.8 μM
CRE K. pneumoniae [2] = tested on: CRE K. pneumoniae
MDR P. aeruginosa = conditions: 2 h, 5.6 μM
MRSA = conditions: 2 h, 11.2 μM
VRE = conditions: 2 h, 11.2 μM
MDR Enterobacter cloacae = conditions: 2 h, 16.8 μM
N. gonorrhoeae = conditions: 2 h, 22.4 μM
B. anthracis = conditions: 2 h, 22.4 μM
[3] = assay media, higher concentrations
CRE K. pneumoniae [4] = type: cell-based, Klebsiella pneumoniae; conditions: for function of alanine scan variants: 2 hours (FIGS. 21, 22); for bactericidal activity versus negative control Peptide P5: 2.5×10^5 cfu/ml
[5] = Truncation of Peptide P9, retention of activity; conditions: first 6 amino acids removed
Text: In some embodiments, alanine scans are available for […] (SEQ ID NO: 11). The alanine scan was used to modify the malleable position 8 and to make a conservative substitution at alanine residue 12 with an alkenyl derivative of alanine, namely, 2-(4-pentenyl)alanine, and then the alkene groups at positions 8 and 12 were coupled/stapled. Thus, a modified peptide in accordance with the presently disclosed subject matter includes a coupled peptide or a stapled peptide. […] Further, the first 6 amino acids present in […] (SEQ ID NO: 11) can be removed one by one while still retaining activity; removing all 6 gives KNLLKAVSKERSKRSP (SEQ ID NO: 12). Further truncations are also provided, including from the other end (such as the two end residues based on the alanine scan).

MDR S. Typhi [6] = type: cell-based, Salmonella enterica serovar Typhi; conditions: 50 μM, RPMI/HEPES, 2.5×10^5 cfu/ml
CD45+/CD3+ T lymphocytes = assay: Host-targeted bioregulatory effects: in vivo recruitment/infiltration of T lymphocytes; parameters: species or system C57BL/6 mice; conditions: as stated in the sequence description; FIG. 12
[7] = tested on: B. anthracis Sterne strain 7702 spores; type: cell-based, Bacillus anthracis; conditions: 50 μM, RPMI/HEPES+2% FBS, 3 hours post-treatment, 1.0×10^7 cfu/ml spores
K. pneumoniae ATCC 43816 = assay: Full-thickness wound infection model; type: in vivo, C57BL/6 mice
trypsin protease = assay: Resistance to proteolytic degradation (trypsin pretreatment, read out by killing of CRE K. pneumoniae); conditions: trypsin 200:1 molar ratio, 2 hours, 50 mM Tris-HCl + 20 mM CaCl2

CC[C@H](C)[C@H](NC(=O)[C@H](CO)NC(=O)[C@@H](NC(=O)[C@H](CS)NC(=O)[C@@H](NC(=O)[C@H](CS)NC(=O)[C@H](CCCNC(=N)N)NC(=O)[C@@H](NC(=O)[C@@H](NC(=O)[C@H](CCCNC(=N)N)NC(=O)[C@H](CO)NC(=O)[C@H](CC(C)C)NC(=O)[C@@H]1CCCN1C(=O)[C@@H](N)C(C)C)[C@@H](C)O)C(C)C)[C@@H](C)O)[C@@H](C)CC)C(=O)O [Peptide P1, VPLSRTVRCTCISI] (H-VPLSRTVRCTCISI-OH; N-terminus and C-terminus assumed)
killing of bacteria (MDR A. baumannii): 99.0-99.9%
killing of bacteria (MDR S. flexneri; MDR, 2 h, 2.8 μM): 99.0-99.9%
killing of bacteria (MDR S. Typhi [1]): 99.0-99.9%
killing of bacteria (CRE K. pneumoniae [2]; CRE, 2 h, 5.6 μM): 99.0-99.9%
killing of bacteria (MDR P. aeruginosa): 99.0-99.9%
killing of bacteria (MRSA): 99.0-99.9%
killing of bacteria (VRE): 99.0-99.9%
killing of bacteria (MDR Enterobacter cloacae): 99.0-99.9%
killing of bacteria (N. gonorrhoeae): 99.0-99.9%
killing of bacteria (B. anthracis): 99.0-99.9%
solubility [3]: experienced solubility issues at higher concentrations

ATVRCTCI (Artificially synthesized antibacterial peptide or conjugate) [SEQ ID NO: 25, alanine scan variant of Peptide L8, position 1]
function of alanine scan variants (CRE K. pneumoniae [4]; 50 μM, RPMI/HEPES): still functional

CSVPTITCRVRLIS (Artificially synthesized antibacterial peptide or conjugate) [Peptide P1scram]
survival of bacteria following exposure (killing) (MDR S. flexneri; 2.8 μM peptide, FIG. 6): did not kill bacteria
survival of bacteria following exposure (killing) (CRE K. pneumoniae [2]; 2.8 μM peptide, FIG. 6): did not kill bacteria

KNLLKAVSKERSKRSP (Artificially synthesized antibacterial peptide or conjugate) [SEQ ID NO: 12, 16 amino acid core, truncated version of Peptide P9]
retention of the activities of Peptide P9 after truncation [5]: retains the activities of Peptide P9

L8-L8-L8: three copies of Peptide L8 concatemerized in head-to-tail configuration (RTVRCTCIRTVRCTCIRTVRCTCI; Artificially synthesized antibacterial peptide or conjugate) [Peptide L8-L8-L8]
bactericidal activity versus negative control Peptide P5 (CRE K. pneumoniae [4]; 50 μM, RPMI/HEPES): killed CRE K. pneumoniae statistically significantly more effectively than Peptide P5

LSRTVRCTCISI (Artificially synthesized antibacterial peptide or conjugate) [Peptide ΔVP, truncated Peptide P1 variant lacking the first two amino acids]
bactericidal activity versus negative control Peptide P5 (CRE K. pneumoniae [4]; 50 μM, RPMI/HEPES): statistically significant differences
bactericidal activity versus negative control Peptide P5 (MDR S. Typhi [6]): statistically significant differences
immunomodulatory activity (CD45+/CD3+ T lymphocytes): reduced or absent immunomodulatory activity

PESKAIK(pA)LLK(pA)VSKERSKRSP (PESKAIK[ξαMeGly(pent-4-enyl)]LLK[ξαMeGly(pent-4-enyl)]VSKERSKRSP) [alkene-modified peptide, Peptide P9 variant with 2-(4-pentenyl)alanine at amino acids 8 and 12]
activity of modified Peptide P9 variants relative to Peptide P9 (CRE K. pneumoniae [4]; 50 μM, RPMI/HEPES, 2 hours (FIG. 20)): increased activity

PESKAIKNLLKAVSKERSKRSP [Peptide P9]
activity in hypotonic buffer (CRE K. pneumoniae [4]; 10 mM KPB/1% TSB, 2 hours at 37° C., FIG. 10): had activity
activity in RPMI (normosaline) (CRE K. pneumoniae [4]; RPMI/HEPES, 2 hours at 37° C., FIG. 10): lost activity
killing of bacteria (N. gonorrhoeae): 99.0-99.9%

PESKAIKNLLKAVSKERSKRSPGGGVPLSRTVRCTCISI (Artificially synthesized antibacterial peptide or conjugate) [Peptide P59, Peptide P9 conjugated to Peptide P1 via a tri-glycine linker]
spore germination (numbers of bacilli) [7]: reduced spore germination

RAVRCTCI (Artificially synthesized antibacterial peptide or conjugate) [SEQ ID NO: 26, alanine scan variant of Peptide L8, position 2]
function of alanine scan variants (CRE K. pneumoniae [4]; 50 μM, RPMI/HEPES): still functional

RTVRCTCI [Peptide D8]
antimicrobial activity after incubation with trypsin (CRE K. pneumoniae [4]; 50 μM peptide pretreated with trypsin (200:1 molar ratio) for 2 hours): retaining antimicrobial activity
bactericidal activity versus negative control Peptide P5 (CRE K. pneumoniae [4]; 50 μM, RPMI/HEPES): statistically significant differences
bactericidal activity versus negative control Peptide P5 (MDR S. Typhi [6]): statistically significant differences
spore germination (numbers of bacilli) [7]: reduced spore germination
survival (Kaplan-Meier) of infected mice (K. pneumoniae ATCC 43816; 10 μl of 1.2% peptide in saline topically, 4 hours post-infection then twice per day for 4 days, versus saline): statistically significant increase in survival
bacterial burden of wound swabs on LB agar (K. pneumoniae ATCC 43816; same treatment, day 14 post-infection): No bacterial growth was observed
wound status over the course of infection (K. pneumoniae ATCC 43816; same treatment, through day 21): bacterial infection was resolved and healing occurred
resistance to proteolytic degradation (trypsin protease): resistant to proteolytic degradation

RTVRCTCI [Peptide L8]
bactericidal activity versus negative control Peptide P5 (CRE K. pneumoniae [4]; 50 μM, RPMI/HEPES): killed CRE K. pneumoniae statistically significantly more effectively than Peptide P5

VPLSRTVRTVRCTCISIGGGPESKAIKNLLKAVSKERSKRSP [Peptide P55]
bactericidal activity versus negative control Peptide P5 (CRE K. pneumoniae [4]; 50 μM, RPMI/HEPES): statistically significant differences
bactericidal activity versus negative control Peptide P5 (MDR S. Typhi [6]): statistically significant differences
